# System: Type-1 diabetic rats
# Assay: Chronic administration, plasma glucose level in Type-1 diabetic rats
# Type: in vivo
# Conditions: for PGL: INS 1 U/kg i.p. once daily; for % PGL Reduction: INS 1 U/kg i.p., vs respective vehicle control group
# Method: Experimental studies were performed in animal models (rats) to determine anti-diabetic potential if any (Type 1 and Type 2) of the novel fraction isolated from fenugreek seeds (>70% furostanolic saponins with approximately 30% protodioscin as one of the major fractions).
substance,measurement,setting,value
Insulin,PGL,0 d,527.98 ± 50.31 mg/dL
same,PGL,7 d,218.33 ± 16.87 mg/dL
same,PGL,14 d,260.65 ± 22.96 mg/dL
same,% PGL Reduction,7 d,(56.3%)
same,% PGL Reduction,14 d,(48.2%)
same,% PGL Reduction,"14 d, listed as insulin",48.2%

# Reference: patent publication US20120071427A1, “NOVEL ANTIDIABETIC FUROSTANOLIC SAPONIN RICH (FSR) FRACTION FROM FENUGREEK SEEDS” (priority 2009, published 2012)
